In patent US8895004B2 (priority 2007, dated 2014):
Like-named read-outs stand apart in the source and are kept apart here.

Assays:
[1] = test system: hippocampal slice cultures; assay: Evoked synaptic transmission in hippocampal slice cultures after overnight incubation; conditions: globulomer approx. 1 μM monomer
[2] = test system: cultured hippocampal neurons; type: cell-based, rat
GABAA receptors = type: cell-based, rat
[3] = test system: cells predominantly expressing presynaptic N-type calcium channels; type: cell-based, rat
L-type calcium currents = type: cell-based, rat
[4] = test system: cultured hippocampal neurons; assay: sPSC frequency at 1 mM and 4 mM extracellular Ca2+ after Aβ(1-42) globulomer; type: cell-based
Experimental: Spontaneous synaptic activity was measured in cultured hippocampal neurons using whole-cell voltage clamp techniques (Vhold=−70 mV). Under the ionic conditions used (ECl˜−10 mV) all synaptic events appeared as inward currents.
Currents recorded prior to the addition of the globulomer served as control describing basal synaptic transmission. Currents recorded in the interval immediately after application were analysed with respect to the control data. Afterwards, extracellular Ca^2+ was elevated from 1 mM to 4 mM (leaving the concentration of globulomer unchanged). Currents in the following 5 min recording interval were again analysed with respect to control data.

[5] = test system: cultured hippocampal neurons
[6] = target: T1, P/Q-type calcium channels (Rattus norvegicus, UniProt P54282); type: cell-based
T1 construct: Typical P/Q channel-mediated currents could be reliably elicited in somatic whole-cell recordings under our culture conditions; endogenous in cells; host or cells: cultured hippocampal neurons

hippocampal slice = assay: Spontaneous synaptic currents in acute hippocampal slice, CA1 pyramidal cells; type: cell-based; conditions: mouse slice
Experimental: 400 μm thick slices were prepared from freshly dissected hippocampi of the mouse using a method known per se (Dingledine R. Brain Slices. New York: Plenum Press, 1983).

[7] = globulomer, after elevation of Ca2+ to 4 mM

T1 sequence (Q8CFG6 19-1157): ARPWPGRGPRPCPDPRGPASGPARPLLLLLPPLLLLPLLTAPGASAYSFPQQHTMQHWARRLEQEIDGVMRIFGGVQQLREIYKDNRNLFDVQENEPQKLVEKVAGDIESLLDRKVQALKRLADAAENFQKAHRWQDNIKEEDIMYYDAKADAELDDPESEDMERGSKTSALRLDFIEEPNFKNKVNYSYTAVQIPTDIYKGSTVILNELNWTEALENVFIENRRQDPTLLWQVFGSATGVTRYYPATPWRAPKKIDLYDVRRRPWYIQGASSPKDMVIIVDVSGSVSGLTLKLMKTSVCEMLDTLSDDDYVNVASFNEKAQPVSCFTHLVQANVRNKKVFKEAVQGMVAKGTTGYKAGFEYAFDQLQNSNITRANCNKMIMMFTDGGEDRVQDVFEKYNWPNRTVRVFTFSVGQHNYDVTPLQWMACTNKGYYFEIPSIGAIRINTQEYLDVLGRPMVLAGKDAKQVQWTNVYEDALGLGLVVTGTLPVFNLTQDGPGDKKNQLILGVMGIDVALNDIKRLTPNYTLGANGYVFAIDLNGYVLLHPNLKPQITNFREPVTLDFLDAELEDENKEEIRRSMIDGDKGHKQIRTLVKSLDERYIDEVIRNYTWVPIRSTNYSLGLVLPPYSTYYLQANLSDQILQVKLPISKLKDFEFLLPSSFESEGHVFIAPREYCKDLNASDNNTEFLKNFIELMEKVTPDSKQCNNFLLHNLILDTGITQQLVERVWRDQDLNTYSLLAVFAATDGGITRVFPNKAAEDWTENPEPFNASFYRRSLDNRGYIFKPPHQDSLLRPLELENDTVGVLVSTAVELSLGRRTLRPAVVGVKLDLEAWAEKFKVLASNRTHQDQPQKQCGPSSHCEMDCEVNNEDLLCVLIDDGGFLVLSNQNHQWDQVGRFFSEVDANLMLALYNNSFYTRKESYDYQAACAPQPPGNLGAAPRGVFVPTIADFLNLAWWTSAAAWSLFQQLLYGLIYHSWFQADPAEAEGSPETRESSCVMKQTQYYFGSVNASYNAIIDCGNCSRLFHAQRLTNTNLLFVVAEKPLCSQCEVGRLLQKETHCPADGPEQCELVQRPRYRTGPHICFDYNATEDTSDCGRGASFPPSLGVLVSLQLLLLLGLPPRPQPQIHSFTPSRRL
T1 sequence (P54282 whole entry): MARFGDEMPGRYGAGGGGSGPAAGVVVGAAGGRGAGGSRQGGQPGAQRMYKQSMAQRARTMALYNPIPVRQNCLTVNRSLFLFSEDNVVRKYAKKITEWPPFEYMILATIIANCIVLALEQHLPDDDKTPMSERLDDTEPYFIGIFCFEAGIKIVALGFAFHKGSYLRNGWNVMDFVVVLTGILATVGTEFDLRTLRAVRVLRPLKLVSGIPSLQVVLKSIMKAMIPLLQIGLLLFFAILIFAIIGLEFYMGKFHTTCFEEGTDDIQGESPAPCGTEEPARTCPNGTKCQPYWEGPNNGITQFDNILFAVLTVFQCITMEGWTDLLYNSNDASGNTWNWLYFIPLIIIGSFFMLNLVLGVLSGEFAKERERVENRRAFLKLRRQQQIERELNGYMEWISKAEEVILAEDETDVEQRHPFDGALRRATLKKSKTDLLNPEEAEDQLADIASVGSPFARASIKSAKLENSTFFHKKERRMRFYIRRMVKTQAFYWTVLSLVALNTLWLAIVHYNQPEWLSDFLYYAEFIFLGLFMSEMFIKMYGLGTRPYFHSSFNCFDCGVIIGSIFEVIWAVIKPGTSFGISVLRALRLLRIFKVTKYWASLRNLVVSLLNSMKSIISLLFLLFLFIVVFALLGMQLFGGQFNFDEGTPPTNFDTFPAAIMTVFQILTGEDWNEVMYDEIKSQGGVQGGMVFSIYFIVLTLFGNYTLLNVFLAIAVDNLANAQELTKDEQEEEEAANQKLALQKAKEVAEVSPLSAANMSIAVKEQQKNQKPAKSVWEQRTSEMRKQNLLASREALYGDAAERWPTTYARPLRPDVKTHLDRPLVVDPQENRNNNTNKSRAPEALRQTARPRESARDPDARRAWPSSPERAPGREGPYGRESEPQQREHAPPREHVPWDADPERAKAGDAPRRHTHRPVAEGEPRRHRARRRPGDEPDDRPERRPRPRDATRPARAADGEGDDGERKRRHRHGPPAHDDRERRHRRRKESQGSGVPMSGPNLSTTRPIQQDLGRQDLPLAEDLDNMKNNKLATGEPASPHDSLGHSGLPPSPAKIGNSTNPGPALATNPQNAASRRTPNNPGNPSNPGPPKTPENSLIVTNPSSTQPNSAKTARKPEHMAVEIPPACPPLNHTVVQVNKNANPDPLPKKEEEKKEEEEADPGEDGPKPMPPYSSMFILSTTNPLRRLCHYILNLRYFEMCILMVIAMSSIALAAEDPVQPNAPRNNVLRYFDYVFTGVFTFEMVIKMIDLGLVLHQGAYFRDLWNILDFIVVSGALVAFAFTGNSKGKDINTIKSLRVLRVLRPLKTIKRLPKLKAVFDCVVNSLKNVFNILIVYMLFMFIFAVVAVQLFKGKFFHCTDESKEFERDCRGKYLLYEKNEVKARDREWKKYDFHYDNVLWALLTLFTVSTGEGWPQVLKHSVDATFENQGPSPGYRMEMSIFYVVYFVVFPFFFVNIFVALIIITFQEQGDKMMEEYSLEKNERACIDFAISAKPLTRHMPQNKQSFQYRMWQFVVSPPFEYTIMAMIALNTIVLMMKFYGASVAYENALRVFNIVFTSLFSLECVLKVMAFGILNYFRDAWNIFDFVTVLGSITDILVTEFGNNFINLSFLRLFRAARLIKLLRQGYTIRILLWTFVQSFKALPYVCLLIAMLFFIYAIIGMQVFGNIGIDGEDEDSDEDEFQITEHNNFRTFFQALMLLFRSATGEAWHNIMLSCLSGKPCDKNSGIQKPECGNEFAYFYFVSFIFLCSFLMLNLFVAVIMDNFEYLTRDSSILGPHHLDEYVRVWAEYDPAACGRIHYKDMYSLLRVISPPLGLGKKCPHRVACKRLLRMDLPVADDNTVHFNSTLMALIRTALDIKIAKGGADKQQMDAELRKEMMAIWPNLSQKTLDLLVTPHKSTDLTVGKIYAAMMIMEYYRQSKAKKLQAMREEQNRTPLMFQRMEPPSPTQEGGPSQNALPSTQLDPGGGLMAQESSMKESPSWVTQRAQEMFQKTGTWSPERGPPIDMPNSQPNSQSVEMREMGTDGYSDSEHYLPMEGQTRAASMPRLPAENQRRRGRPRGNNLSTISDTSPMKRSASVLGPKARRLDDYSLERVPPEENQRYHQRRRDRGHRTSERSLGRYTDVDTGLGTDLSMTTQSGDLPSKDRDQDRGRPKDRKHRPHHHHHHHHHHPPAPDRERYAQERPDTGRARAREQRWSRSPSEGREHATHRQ
T1 sequence (P54283 whole entry, further chain): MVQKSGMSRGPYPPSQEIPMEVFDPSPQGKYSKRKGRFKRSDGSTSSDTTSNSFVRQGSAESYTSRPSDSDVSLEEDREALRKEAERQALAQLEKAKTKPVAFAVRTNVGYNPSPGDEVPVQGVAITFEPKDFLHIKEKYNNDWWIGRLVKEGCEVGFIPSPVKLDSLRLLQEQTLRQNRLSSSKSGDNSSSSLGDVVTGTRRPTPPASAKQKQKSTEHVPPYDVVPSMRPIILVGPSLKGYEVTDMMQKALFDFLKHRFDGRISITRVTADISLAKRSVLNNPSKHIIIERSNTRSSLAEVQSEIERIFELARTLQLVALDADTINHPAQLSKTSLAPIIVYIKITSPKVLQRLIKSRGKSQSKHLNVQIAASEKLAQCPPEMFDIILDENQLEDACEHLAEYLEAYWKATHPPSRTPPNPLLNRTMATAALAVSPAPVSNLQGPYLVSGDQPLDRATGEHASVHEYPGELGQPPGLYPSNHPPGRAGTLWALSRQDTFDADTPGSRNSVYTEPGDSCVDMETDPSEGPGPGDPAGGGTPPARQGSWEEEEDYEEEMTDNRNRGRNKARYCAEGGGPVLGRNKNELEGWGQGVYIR

Aβ(1-42) globulomer: soluble, globular, non-covalent association of Aβ(1-42) peptides, apparent molecular weight 38/48 kDa, obtained as in Example 6b of WO2004/067561
evoked synaptic transmission [1]: strongly suppresses synaptic transmission | amplitude of the AP (baseline to peak) [2]: 110.9±16.7 mV | half-width time [2]: 4.0 ± 2.9 ms | input resistance [2]: 131.6±13.7 MΩ | maximal rate of repolarization [2]: 47.4±19.3 V/s | maximal rate of rise [2]: 84.2±50.0 V/s | threshold for firing [2]: −24.2±9.8 mV | GABA-induced inward currents (GABAA receptors): unaltered | spontaneous synaptic activity (frequency and amplitude) in N-dominated cells [3]: does not impair spontaneous synaptic activity | L-type calcium current amplitude (L-type calcium currents): 573.0±225.6 pA | median amplitude of sPSCs ([4]; 1 mM Ca2+, globulomer): 97±5% | sPSC frequency ([4]; 1 mM Ca2+, globulomer approx. 1 μM monomer): 63±7 % of control | median amplitude of sPSCs [4, 7]: 98±6% | sPSC frequency [4, 7]: 77±13 % of control | amplitude of mEPSCs [5]: 96±3 % of control | amplitude of spontaneous EPSCs [5]: 79±4 % of control | amplitude of spontaneous EPSCs during washout [5]: 96±6% | amplitude of spontaneous IPSCs after withdrawal [5]: 94±2% | amplitude of synaptic currents after pre-incubation with ω-Agatoxin IVA [5]: 102±7 | frequency of mIPSCs [5]: 52±10 % of control | frequency of mIPSCs after washout [5]: 68±12 % of control | frequency of mPSCs [5]: 56±9 % of control | frequency of mPSCs after washout [5]: 77±7.6 % of control | frequency of miniature EPSCs [5]: 57±9 % of control | frequency of miniature EPSCs after wash-out [5]: 54±8% | frequency of sPSCs after washout [5]: 61±16% | frequency of spontaneous EPSCs [5]: 14±4 % of control | frequency of spontaneous EPSCs during washout [5]: 52±19 % of control | frequency of spontaneously occurring IPSCs [5]: 64±5 % of control | frequency of synaptic currents after pre-incubation with ω-Agatoxin IVA [5]: 108±15% | mIPSC amplitude [5]: 81±6 % of control | mIPSC amplitude after washout [5]: 85±6% | median amplitude of mPSCs [5]: 30.2±5.2 pA | median amplitude of spontaneous IPSCs [5]: 82±2 % of control | amplitude of P/Q-type currents [6]: 62±7 % of control | maximal conductance (gmax) [6]: 27.2±3.2 nS | reversibility of P/Q-type current reduction [6]: partially reversible | slope Vc of steady-state activation [6]: −10.8±0.5 mV | slope Vc of steady-state inactivation [6]: −12.6±1.1 mV | steady-state activation Vh [6]: −17.3±1.3 mV | voltage at half-maximal inactivation [6]: 32.4±1.2 mV | inhibition mechanism in hippocampal slice (hippocampal slice): also valid in situ

monomeric Aβ(1-42): synthetic monomeric Aβ(1-42) peptide (H-1368; Bachem) dissolved in 0.1% NaOH; likely a mixture of aggregation states
frequency of mPSCs ([5]; 1 μM monomer, TTX): 87±3 % of control | median amplitude of mPSCs ([5]; 1 μM monomer, TTX): 33.7±3.0 pA

ω-agatoxin IVA (KKKCIAKDYGRCKWGGTPCCRGRGCICSIMGTNCECKPRLIMEGLGLA)
spontaneous synaptic activity (frequency and amplitude) in N-dominated cells [3]: does not impair spontaneous synaptic activity
